Measured values taken from ChEMBL document CHEMBL5523701, “Structure-based discovery of small molecule inhibitors of FKBP51-Hsp90 protein-protein interaction” (Eur J Med Chem, 2024).

Columns and labels:
[1] = target: Small glutamine-rich tetratricopeptide repeat-containing protein alpha (Homo sapiens, UniProt O43765); test: Inhibition of GST-tagged human SGTA expressed in Escherichia coli BL21 (DE3) using NH2-EDASRMEEVD-COOH peptide as substrate preincubated for 15 mins followed by substrate addition measured after 15 mins by Alpha Screen assay
[2] = target: Peptidyl-prolyl cis-trans isomerase FKBP8 (Homo sapiens, UniProt Q14318); test: Inhibition of GST-tagged human FKBP38 expressed in Escherichia coli BL21 (DE3) using NH2-EDASRMEEVD-COOH peptide as substrate preincubated for 15 mins followed by substrate addition measured after 15 mins by Alpha Screen assay
[3] = target: T1, Mitochondrial import receptor subunit TOM70 (Homo sapiens, UniProt O94826); test: Inhibition of GST-tagged human TOM70 expressed in Escherichia coli BL21 (DE3) using NH2-EDASRMEEVD-COOH peptide as substrate preincubated for 15 mins followed by substrate addition measured after 15 mins by Alpha Screen assay
T1 sequence (O94826 whole entry): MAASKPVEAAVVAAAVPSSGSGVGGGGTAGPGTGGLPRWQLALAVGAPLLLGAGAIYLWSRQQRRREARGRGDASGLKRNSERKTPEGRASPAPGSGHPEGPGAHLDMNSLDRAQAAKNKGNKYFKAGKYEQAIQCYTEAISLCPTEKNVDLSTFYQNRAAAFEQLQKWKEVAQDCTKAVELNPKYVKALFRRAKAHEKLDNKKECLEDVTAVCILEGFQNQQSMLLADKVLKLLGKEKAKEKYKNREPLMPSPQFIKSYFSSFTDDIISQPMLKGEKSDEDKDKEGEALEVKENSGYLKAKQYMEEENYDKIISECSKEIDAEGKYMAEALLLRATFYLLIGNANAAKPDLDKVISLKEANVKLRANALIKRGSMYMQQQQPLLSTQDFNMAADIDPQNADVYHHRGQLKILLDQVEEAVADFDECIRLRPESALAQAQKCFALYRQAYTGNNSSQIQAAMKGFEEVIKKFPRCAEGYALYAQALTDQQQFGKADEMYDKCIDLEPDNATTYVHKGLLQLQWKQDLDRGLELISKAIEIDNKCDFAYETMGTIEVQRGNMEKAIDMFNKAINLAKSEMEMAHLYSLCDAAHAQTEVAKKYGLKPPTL

[4] = target: T2, E3 ubiquitin-protein ligase CHIP (Homo sapiens, UniProt Q9UNE7); test: Inhibition of GST-tagged human CHIP expressed in Escherichia coli BL21 (DE3) using NH2-EDASRMEEVD-COOH peptide as substrate preincubated for 15 mins followed by substrate addition measured after 15 mins by Alpha Screen assay
T2 sequence (Q9UNE7 whole entry): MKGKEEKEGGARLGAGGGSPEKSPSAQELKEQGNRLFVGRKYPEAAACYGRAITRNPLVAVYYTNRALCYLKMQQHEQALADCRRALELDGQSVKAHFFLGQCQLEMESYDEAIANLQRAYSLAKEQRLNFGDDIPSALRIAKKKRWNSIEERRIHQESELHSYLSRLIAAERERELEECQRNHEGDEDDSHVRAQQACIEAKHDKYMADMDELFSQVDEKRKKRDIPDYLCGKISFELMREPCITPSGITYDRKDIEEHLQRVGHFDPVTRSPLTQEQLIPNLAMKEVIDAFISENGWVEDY

[5] = target: T3, Mitochondrial import receptor subunit TOM34 (Homo sapiens, UniProt Q15785); test: Inhibition of GST-tagged human TOM34 expressed in Escherichia coli BL21 (DE3) using NH2-EDASRMEEVD-COOH peptide as substrate preincubated for 15 mins followed by substrate addition measured after 15 mins by Alpha Screen assay
T3 sequence (Q15785 whole entry): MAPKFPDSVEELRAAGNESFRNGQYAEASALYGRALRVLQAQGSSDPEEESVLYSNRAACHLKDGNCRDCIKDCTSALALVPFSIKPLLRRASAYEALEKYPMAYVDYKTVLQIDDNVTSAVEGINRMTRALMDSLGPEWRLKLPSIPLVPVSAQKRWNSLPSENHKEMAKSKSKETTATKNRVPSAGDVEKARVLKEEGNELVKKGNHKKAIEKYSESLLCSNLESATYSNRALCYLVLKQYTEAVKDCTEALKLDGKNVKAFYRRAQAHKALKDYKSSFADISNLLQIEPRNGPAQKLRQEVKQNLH

[6] = target: Stress-induced-phosphoprotein 1 (Homo sapiens, UniProt P31948); test: Inhibition of GST-tagged human HOP expressed in Escherichia coli BL21 (DE3) using NH2-EDASRMEEVD-COOH peptide as substrate preincubated for 15 mins followed by substrate addition measured after 15 mins by Alpha Screen assay
[7] = target: T4, DnaJ homolog subfamily C member 7 (Homo sapiens, UniProt Q99615); test: Inhibition of GST-tagged human DNAJC7 expressed in Escherichia coli BL21 (DE3) using NH2-EDASRMEEVD-COOH peptide as substrate preincubated for 15 mins followed by substrate addition measured after 15 mins by Alpha Screen assay
T4 sequence (Q99615 whole entry): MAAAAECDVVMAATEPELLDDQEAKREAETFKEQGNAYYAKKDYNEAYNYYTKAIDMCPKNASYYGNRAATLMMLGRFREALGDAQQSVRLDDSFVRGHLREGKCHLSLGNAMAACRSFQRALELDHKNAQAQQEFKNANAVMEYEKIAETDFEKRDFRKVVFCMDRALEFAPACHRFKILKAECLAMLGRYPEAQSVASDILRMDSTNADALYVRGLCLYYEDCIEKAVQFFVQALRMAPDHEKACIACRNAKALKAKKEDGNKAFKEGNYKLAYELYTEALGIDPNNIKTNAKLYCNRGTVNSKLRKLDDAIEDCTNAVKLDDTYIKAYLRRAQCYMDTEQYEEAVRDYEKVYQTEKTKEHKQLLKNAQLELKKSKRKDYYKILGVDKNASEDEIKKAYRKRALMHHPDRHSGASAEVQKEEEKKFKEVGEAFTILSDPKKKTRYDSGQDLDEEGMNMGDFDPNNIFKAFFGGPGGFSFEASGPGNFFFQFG

[8] = target: T5, AH receptor-interacting protein (Homo sapiens, UniProt O00170); test: Inhibition of GST-tagged human AIP expressed in Escherichia coli BL21 (DE3) using NH2-EDASRMEEVD-COOH peptide as substrate preincubated for 15 mins followed by substrate addition measured after 15 mins by Alpha Screen assay
T5 sequence (O00170 whole entry): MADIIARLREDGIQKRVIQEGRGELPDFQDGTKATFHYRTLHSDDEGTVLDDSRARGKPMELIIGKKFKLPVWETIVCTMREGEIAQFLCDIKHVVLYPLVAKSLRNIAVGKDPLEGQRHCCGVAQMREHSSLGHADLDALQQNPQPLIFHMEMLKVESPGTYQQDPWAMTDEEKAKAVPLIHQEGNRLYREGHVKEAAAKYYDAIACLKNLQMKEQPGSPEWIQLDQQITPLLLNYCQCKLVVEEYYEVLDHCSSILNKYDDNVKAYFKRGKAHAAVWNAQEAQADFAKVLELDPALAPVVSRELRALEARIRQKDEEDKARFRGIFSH

Chain of Small glutamine-rich tetratricopeptide repeat-containing protein alpha (O43765 whole entry): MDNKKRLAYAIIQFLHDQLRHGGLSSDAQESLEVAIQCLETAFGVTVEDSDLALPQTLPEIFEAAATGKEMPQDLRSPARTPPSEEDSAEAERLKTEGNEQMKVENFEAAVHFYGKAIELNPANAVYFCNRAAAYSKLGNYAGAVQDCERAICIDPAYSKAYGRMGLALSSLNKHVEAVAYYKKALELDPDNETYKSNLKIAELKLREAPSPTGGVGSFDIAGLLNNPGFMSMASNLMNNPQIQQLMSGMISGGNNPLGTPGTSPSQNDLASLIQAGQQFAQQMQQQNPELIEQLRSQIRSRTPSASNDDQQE
Chain of Stress-induced-phosphoprotein 1 (P31948 whole entry): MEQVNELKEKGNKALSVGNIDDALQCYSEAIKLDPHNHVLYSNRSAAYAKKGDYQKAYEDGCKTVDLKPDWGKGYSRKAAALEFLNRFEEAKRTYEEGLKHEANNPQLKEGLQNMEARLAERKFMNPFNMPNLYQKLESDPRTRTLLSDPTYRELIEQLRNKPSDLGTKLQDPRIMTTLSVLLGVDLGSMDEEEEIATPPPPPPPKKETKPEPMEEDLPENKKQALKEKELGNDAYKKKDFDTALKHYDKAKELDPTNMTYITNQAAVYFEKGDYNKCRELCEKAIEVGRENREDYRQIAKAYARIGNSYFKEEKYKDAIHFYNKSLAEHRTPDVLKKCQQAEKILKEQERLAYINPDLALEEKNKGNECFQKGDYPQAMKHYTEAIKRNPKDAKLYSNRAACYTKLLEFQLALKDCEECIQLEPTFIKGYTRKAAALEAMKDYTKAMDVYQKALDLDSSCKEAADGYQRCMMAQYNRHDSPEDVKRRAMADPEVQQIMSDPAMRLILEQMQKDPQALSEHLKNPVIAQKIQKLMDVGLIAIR
Chain of Peptidyl-prolyl cis-trans isomerase FKBP8 (Q14318 whole entry): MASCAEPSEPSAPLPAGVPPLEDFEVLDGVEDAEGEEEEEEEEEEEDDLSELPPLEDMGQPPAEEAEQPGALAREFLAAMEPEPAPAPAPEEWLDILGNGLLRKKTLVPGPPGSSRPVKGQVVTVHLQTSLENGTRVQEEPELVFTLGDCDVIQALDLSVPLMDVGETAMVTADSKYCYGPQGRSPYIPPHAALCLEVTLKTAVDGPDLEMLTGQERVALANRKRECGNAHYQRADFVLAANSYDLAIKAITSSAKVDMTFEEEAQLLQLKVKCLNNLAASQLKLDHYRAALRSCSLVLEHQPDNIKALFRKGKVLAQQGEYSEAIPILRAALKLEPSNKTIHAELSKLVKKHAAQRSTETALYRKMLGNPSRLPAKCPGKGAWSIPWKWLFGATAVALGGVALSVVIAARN

| Structure (SMILES) | IC50 [1] [µM] | IC50 [2] [µM] | IC50 [3] [µM] | IC50 [4] [µM] | IC50 [5] [µM] | IC50 [6] [µM] | IC50 [7] [µM] | IC50 [8] [µM] |
| --- | --- | --- | --- | --- | --- | --- | --- | --- |
| Cc1sc(NC(=O)CCCC(=O)Nc2sc(C)c(C)c2C(N)=O)c(C(N)=O)c1C | 2 | 4 | 1.2 | 2.5 | 3 | 10 | 2 | 7 |
| COC(=O)c1c(NC(=O)CSc2nnc(-c3ccco3)c(-c3ccco3)n2)sc(C)c1C | 6 | 2.5 | 5 | 2.5 | 4 | 5 | 4 | 6 |
